Laboratory results reported in ChEMBL document CHEMBL3425465, “Synthesis, antimalarial and antitubercular activities of meridianin derivatives” (Eur J Med Chem, 2015).
Converted amounts (≈) assume the structure as drawn.

Experiments:
KB = experiment: Cytotoxicity against human KB cells assessed as cell growth inhibition after 48 hrs by neutral red assay; assay type: cell-based
SK-OV-3 = experiment: Cytotoxicity against human SKOV3 cells assessed as cell growth inhibition after 48 hrs by neutral red assay; assay type: cell-based; details: SK-OV-3, 48 h
[1] = Selectivity index, ratio of IC50 for pig LLC-PK1 cells to IC50 for Plasmodium falciparum W2
Plasmodium falciparum [2] = experiment: Antiplasmodial activity against Plasmodium falciparum D6 infected in human RBC assessed as parasite growth inhibition measured as LDH activity after 72 hrs by plate reader analysis; assay type: functional, organism-based; details: Plasmodium falciparum, D6, 72 h
LLC-PK1 = experiment: Cytotoxicity against pig LLC-PK1 cells assessed as cell growth inhibition after 48 hrs by neutral red assay; assay type: cell-based; details: Sus scrofa, LLC-PK1, 48 h
[3] = Selectivity index, ratio of IC50 for pig LLC-PK1 cells to IC50 for Plasmodium falciparum D6
[4] = system: Mycobacterium tuberculosis; experiment: Antitubercular activity against Mycobacterium tuberculosis H37Rv assessed as […] inhibition after 7 days by broth microdilution assay; assay type: functional; details: 168 h
[5] = Selectivity index, ratio of IC50 for African green monkey VERO cells to IC50 for Plasmodium falciparum D6
BT-549 = experiment: Cytotoxicity against human BT549 cells assessed as cell growth inhibition after 48 hrs by neutral red assay; assay type: cell-based; details: BT-549, 48 h
[6] = Retention time of the compound by HPLC analysis; assay type: physicochemical
Vero = experiment: Cytotoxicity against African green monkey Vero cells assessed as cell growth inhibition after 48 hrs by neutral red assay; assay type: cell-based; details: Chlorocebus sabaeus
SK-MEL = experiment: Cytotoxicity against human SK-MEL cells assessed as cell growth inhibition after 48 hrs by neutral red assay; assay type: cell-based
Plasmodium falciparum [7] = experiment: Antiplasmodial activity against Plasmodium falciparum W2 infected in human RBC assessed as parasite growth inhibition measured as LDH activity after 72 hrs by plate reader analysis; assay type: functional, organism-based; details: Plasmodium falciparum, W2, 72 h
[8] = Selectivity index, ratio of IC50 for African green monkey VERO cells to IC50 for Plasmodium falciparum W2

SMILES	IC50 (KB) [µM]	IC50 (SK-OV-3) [µM]	Ratio IC50 [1]	IC50 (Plasmodium falciparum [2]; read-out: IC50) [µM]	IC50 (Plasmodium falciparum [2]; read-out: pIC50 (converted)) [µM]	IC50 (LLC-PK1) [µM]	Ratio IC50 [3]	MIC90 [4] [µM]	Ratio IC50 [5]	IC50 (BT-549) [µM]	Retention_time [6] [min]	IC50 (Vero) [µM]	IC50 (SK-MEL) [µM]	IC50 (Plasmodium falciparum [7]; read-out: IC50) [µM]	IC50 (Plasmodium falciparum [7]; read-out: pIC50 (converted)) [µM]	Ratio IC50 [8]
N#Cc1ccc(S(=O)(=O)n2cc(-c3ccnc(N)n3)c3cc(Br)ccc32)cc1	> 55	> 55	>10.6	10.3	10.3	> 55	>5.3	70.6 (≈ 32.1 µg/mL)	>5.3	> 55	7.09	> 55	> 55	5.2	5.2	>10.6
Nc1nccc(-c2cn(S(=O)(=O)c3ccc(C(F)(F)F)cc3[N+](=O)[O-])c3ccc(Br)cc23)n1	> 46	> 28	>13.5	2.56	2.56	> 46	>18	118 (≈ 64.2 µg/mL)	>18	> 46	8.26	> 46	> 46	3.41	3.41	>13.5
